# Results as given in patent US20110166119A1 (Glade Organics Private Limited, priority 2008, published 2011).
# Where two headings read alike, the source gives them in different places.
# Experiments:
# [1] = tested on: Klebsiella pneumoniae (VIM producing); assay: Checkerboard MIC, Klebsiella pneumoniae; assay type: cell-based; settings: for MIC: Klebsiella pneumoniae, single drug, read-out: MIC when taken individually
# Procedure: (§1) The checkerboard array was performed in order to find the MIC's of selected antibacterial agents against the strains of Pseudomonas aeruginosa, Acinetobacter baumannii, Klebsiella pneumoniae and MRSA (Methicillin Resistant Staphylococcus aureus).
# (§2) • 1. A total of 50 μl of Mueller-Hinton broth was distributed into each well of the micro dilution plates. • 2. The first antibiotic (A) of the combination was serially twofold diluted along the Y-axis, while the second antibiotic (B) was diluted along the X-axis. • 3. An inoculum equal to a 0.5 McFarland turbidity standard was prepared from each culture in sterile saline. • 4. Each micro titer well was inoculated with 100 μl of a bacterial inoculum and the plate was loaded on ELISA plate reader (37° C. for 24 hrs). Formula for ΣFIC (Fractional inhibitory concentration): […]
# (§3) Where FIC A is the MIC of drug A in the combination/MIC of drug A alone,
# (§4) FIC B is the MIC of drug B in the combination/MIC of drug B alone.
# (§5) The combination is considered synergistic when the ΣFIC is ≦0.5, indifferent when the ΣFIC is >0.5 to <2, and antagonistic when the ΣFIC is ≧2.
# [2] = tested on: Acinetobacter baumanii; assay: Checkerboard MIC, Acinetobacter baumanii; assay type: cell-based, Acinetobacter baumannii; settings: for MIC: Acinetobacter baumannii, single drug, read-out: MIC when taken individually
# Procedure: (§6) The synergistic outcome of the combination was recorded as a concave curve.
# as §1, §2, §3, §4, §5
# [3] = tested on: Methicillin Resistant Staphylococcus aureus (MRSA); assay: Checkerboard MIC, MRSA; assay type: cell-based; settings: for MIC: Staphylococcus aureus, MRSA, read-out: MIC when taken individually
# Procedure: as §6, §1, §2, §3, §4, §5
# [4] = tested on: Pseudomonas aeruginosa ATCC 27853; assay: Checkerboard MIC, Pseudomonas aeruginosa ATCC 27853; assay type: cell-based; settings: for MIC in combination: Meropenem + Aztreonam combination, Table 6; for MIC: Pseudomonas aeruginosa, ATCC27853, read-out: MIC when taken individually
# Procedure: as §1, §2, §3, §4, §5
# [5] = tested on: Pseudomonas aeruginosa (PA1 - ESBL producing); assay: Checkerboard MIC, Pseudomonas aeruginosa PA1; assay type: cell-based; settings: for MIC in combination: Ertapenem + Aztreonam combination, Table 1; for MIC: Pseudomonas aeruginosa, PA1, read-out: MIC when taken individually
# Procedure: as §6, §1, §2, §3, §4, §5
# [6] = Meropenem/Aztreonam checkerboard, Table 5
# [7] = Meropenem 0.097 + Aztreonam 19.53
# [8] = Meropenem 0.195 + Aztreonam 9.76
# [9] = Meropenem + Aztreonam combination, Table 5
# [10] = Meropenem/Aztreonam checkerboard, Table 8
# [11] = Meropenem 1.22 + Aztreonam 9.76
# [12] = Meropenem 2.44 + Aztreonam 4.88
# [13] = Meropenem + Aztreonam combination, Table 8
# [14] = Meropenem 6.1 + Aztreonam 19.53
# [15] = Meropenem 12.2 + Aztreonam 9.76
# [16] = Meropenem + Aztreonam combination, Table 7
# [17] = Meropenem 0.0488 + Aztreonam 19.53
# [18] = Meropenem 0.097 + Aztreonam 9.76
# [19] = Ertapenem 4.88 + Aztreonam 39.06
# [20] = Ertapenem 9.76 + Aztreonam 19.53
# [21] = Ertapenem 19.53 + Aztreonam 9.76
# [22] = Ertapenem 1.22 + Aztreonam 2.44
# [23] = Ertapenem 2.44 + Aztreonam 4.88
# [24] = Ertapenem 4.88 + Aztreonam 9.76
# [25] = Ertapenem + Aztreonam combination, Table 2
# [26] = Ertapenem/Aztreonam checkerboard, Table 3
# [27] = Ertapenem 0.61 + Aztreonam 312.5
# [28] = Ertapenem 1.22 + Aztreonam 156.25
# [29] = Ertapenem 2.44 + Aztreonam 78.12
# [30] = Ertapenem + Aztreonam combination, Table 3
# [31] = Ertapenem + Aztreonam combination, Table 4
structure (smiles),measurement,setting,value
C[C@@H](O)[C@H]1C(=O)N2C(C(=O)O)=C(S[C@@H]3CN[C@H](C(=O)N(C)C)C3)[C@H](C)[C@H]12 [Meropenem],MIC,[1]; [6],0.781 µg/mL
same,FIC of Meropenem (x-co-ordinate),[1]; [7],0.124
same,FIC of Meropenem (x-co-ordinate),[1]; [8],0.2496
same,MIC in combination,[1]; [9],0.097 µg/mL
same,MIC,[2]; [10],19.5 µg/mL
same,FIC of Meropenem (x-co-ordinate),[2]; [11],0.0625
same,FIC of Meropenem (x-co-ordinate),[2]; [12],0.125
same,MIC in combination,[2]; [13],1.22 µg/mL
same,FIC of Meropenem (x-co-ordinate),[3]; [14],0.5
same,FIC of Meropenem (x-co-ordinate),[3]; [15],1
same,MIC in combination,[3]; [16],6.1 µg/mL
same,MIC,[3],12.2 µg/mL
same,FIC of Meropenem (x-co-ordinate),[4]; [17],0.25
same,FIC of Meropenem (x-co-ordinate),[4]; [18],0.497
same,FIC of Meropenem (x-co-ordinate),[4]; Meropenem 0.195 + Aztreonam 4.88,1.0
same,MIC in combination,[4],0.0488 µg/mL
same,MIC,[4],0.195 µg/mL
C[C@@H](O)[C@H]1C(=O)N2C(C(=O)O)=C(S[C@@H]3CN[C@H](C(=O)Nc4cccc(C(=O)O)c4)C3)[C@H](C)[C@H]12 [Ertapenem],FIC of Ertapenem (x-co-ordinate),[5]; [19],0.5
same,FIC of Ertapenem (x-co-ordinate),[5]; [20],1.0
same,FIC of Ertapenem (x-co-ordinate),[5]; [21],2.0
same,MIC in combination,[5],4.88 µg/mL
same,MIC,[5],9.76 µg/mL
same,FIC of Ertapenem (x-co-ordinate),[1]; [22],0.25
same,FIC of Ertapenem (x-co-ordinate),[1]; [23],0.5
same,FIC of Ertapenem (x-co-ordinate),[1]; [24],"(1.0,"
same,FIC of Ertapenem (x-co-ordinate),[1]; [20],"(2.0,"
same,MIC in combination,[1]; [25],4.88 µg/mL
same,MIC,"[1]; Ertapenem/Aztreonam checkerboard, Table 2",1.22 µg/mL
same,MIC,[2]; [26],9.76 µg/mL
same,FIC of Ertapenem (x-co-ordinate),[2]; [27],"(0.0625,"
same,FIC of Ertapenem (x-co-ordinate),[2]; [28],0.125
same,FIC of Ertapenem (x-co-ordinate),[2]; [29],0.25
same,MIC in combination,[2]; [30],0.61 µg/mL
same,FIC of Ertapenem (x-co-ordinate),[3]; [19],0.5
same,FIC of Ertapenem (x-co-ordinate),[3]; [20],1
same,FIC of Ertapenem (x-co-ordinate),[3]; [21],2
same,MIC in combination,[3]; [31],4.88 µg/mL
same,MIC,[3],9.76 µg/mL
C[C@H]1[C@H](NC(=O)/C(=N\OC(C)(C)C(=O)O)c2csc(N)n2)C(=O)N1S(=O)(=O)O [Aztreonam],FIC of Aztreonam (y-co-ordinate),[5]; [19],1.0
same,FIC of Aztreonam (y-co-ordinate),[5]; [20],0.5
same,FIC of Aztreonam (y-co-ordinate),[5]; [21],0.249
same,MIC in combination,[5],9.76 µg/mL
same,MIC,[5],39.1 µg/mL
same,FIC of Aztreonam (y-co-ordinate),[1]; [22],0.00195
same,FIC of Aztreonam (y-co-ordinate),[1]; [23],0.0039
same,FIC of Aztreonam (y-co-ordinate),[1]; [24],0.0078)
same,FIC of Aztreonam (y-co-ordinate),[1]; [20],0.016)
same,MIC in combination,[1]; [25],1.22 µg/mL
same,MIC,[1]; [6],1200 µg/mL
same,FIC of Aztreonam (y-coordinate),[1]; [7],0.016
same,FIC of Aztreonam (y-coordinate),[1]; [8],0.078
same,MIC in combination,[1]; [9],9.76 µg/mL
same,MIC,[2]; [26],10000 µg/mL
same,MIC,[2]; [10],5000 µg/mL
same,FIC of Aztreonam (y-co-ordinate),[2]; [27],0.0313)
same,FIC of Aztreonam (y-co-ordinate),[2]; [28],0.0156
same,FIC of Aztreonam (y-co-ordinate),[2]; [29],0.0078
same,MIC in combination,[2]; [30],78.12 µg/mL
same,FIC of Aztreonam (y-co-ordinate),[2]; [11],0.0039
same,FIC of Aztreonam (y-co-ordinate),[2]; [12],0.00195
same,MIC in combination,[2]; [13],4.88 µg/mL
same,FIC of Aztreonam (y-co-ordinate),[3]; [19],0.0078
same,FIC of Aztreonam (y-co-ordinate),[3]; [20],0.0039
same,FIC of Aztreonam (y-co-ordinate),[3]; [21],0.001952
same,MIC in combination,[3]; [31],9.76 µg/mL
same,FIC of Aztreonam (y-co-ordinate),[3]; [14],0.039
same,FIC of Aztreonam (y-co-ordinate),[3]; [15],0.001952
same,MIC in combination,[3]; [16],19.53 µg/mL
same,MIC,[3],5000 µg/mL
same,MIC when taken individually,"[3]; single drug, Ertapenem/Aztreonam checkerboard, Table 4",5000 µg/mL
same,FIC of Aztreonam (y-co-ordinate),[4]; [17],0.5
same,FIC of Aztreonam (y-co-ordinate),[4]; [18],0.25
same,MIC in combination,[4],4.88 µg/mL
same,MIC,[4],39.1 µg/mL
